Read-outs that look alike come from different tables or passages of the source.
Experiments:
[1] = test system: MCF7 (breast) cancer cell line; assay: MTT antiproliferation, MCF7; format: cell-based, human; details: for IC50: Homo sapiens, MCF7, 72 h, read-out: IC50 (µM) ± SEM MCF7; for SI (selectivity index) MCF7: IC50 of RPE1/IC50 of cancer cell line
Protocol: (§1) Antiproliferation properties of the targeted agents were investigated by the standard MTT technique against diverse human cancer cell lines [MCF7 (breast), HCT116 (colon), A431 (skin squamous) and PaCa2 (pancreatic)][67] (Table 1, Supplementary Figs. S48‒S51).
(§2) Cells were seeded at concentration of 30000 cells per well in fresh complete growth medium in 96-well tissue culture microtiter plates for 24 h. […] 0.5% DMSO was used as negative control. Triplicate wells were prepared for each individual dose. After 72 h of incubation, medium was aspirated, 40 μl MTT salt (2.5 mg ml^-1) was added to each well and incubated for further 4 h at 37 °C. To stop the reaction and dissolve the formed crystals, 150 μl of 10% sodium dodecyl sulfate (SDS) in deionized water was added to each well and incubated overnight at 37 °C.
(§3) Data were collected as mean values for experiments performed in triplicates for each individual dose which had been measured by MTT assay. […] The cell surviving fraction was calculated according to the following equation.
(§4) Surviving fraction = OpticaldensityO.D.oftreatedcellsO.D.ofcontrolcells
(§5) Statistical calculations for determination of the mean and standard error mean values were determined by SPSS 16 software.

[2] = test system: HCT116 (colon) cancer cell line; assay: MTT antiproliferation, HCT116; format: cell-based, human; details: for IC50: Homo sapiens, HCT-116, 72 h, read-out: IC50 (µM) ± SEM HCT116; for SI (selectivity index) HCT116: IC50 of RPE1/IC50 of cancer cell line
Protocol: as §1, §2, §3, §4, §5

[3] = test system: A431 (skin squamous) cancer cell line; assay: MTT antiproliferation, A431; format: cell-based, human; details: for IC50: Homo sapiens; for SI (selectivity index) A431: IC50 of RPE1/IC50 of cancer cell line
Protocol: as §1, §2, §3, §4, §5

[4] = test system: PaCa2 (pancreatic) cancer cell line; assay: MTT antiproliferation, PaCa-2; format: cell-based, human; details: for IC50: Homo sapiens, read-out: IC50 (µM) ± SEM PaCa-2; for SI (selectivity index) PaCa-2: IC50 of RPE1/IC50 of cancer cell line
Protocol: as §1
Cells were suspended in DMEM medium for MCF7, A431, PaCa-2 and McCoy’s 5A for HCT116 in addition to 1% antibiotic–antimycotic mixture (10000 μg ml^-1 potassium penicillin, 10000 μg ml^-1 streptomycin sulfate and 25 μg ml^-1 amphotericin B), 10% fetal bovine serum and 1% L-glutamine at 37 °C, under 5% CO2 and 95% humidity. Cells were seeded at concentration of 30000 cells per well in fresh complete growth medium in 96-well tissue culture microtiter plates for 24 h. Media was aspirated, fresh complete medium was added and cells were incubated with different concentrations of the tested compound to give a final concentration of [50, 25, 12.5 and 6.25 μM “in addition to 3.125, 1.56 and 0.78 μM in case of high potent analogues”). 0.5% DMSO was used as negative control. Triplicate wells were prepared for each individual dose. After 72 h of incubation, medium was aspirated, 40 μl MTT salt (2.5 mg ml^-1) was added to each well and incubated for further 4 h at 37 °C. To stop the reaction and dissolve the formed crystals, 150 μl of 10% sodium dodecyl sulfate (SDS) in deionized water was added to each well and incubated overnight at 37 °C. The absorbance was then measured at 570 nm and a reference wavelength of 595 nm.
as §3, §4
(§6) Statistical calculations for determination of the mean and standard error mean values were determined by SPSS 16 software. The observed anti-proliferative properties are presented in Table 1 (Supplementary Figs. S48‒S52).

[5] = test system: RPE1 (normal human immortalized retinal pigment epithelial cell line); assay: MTT toxicity towards normal cells, RPE1; format: cell-based; details: RPE-1, read-out: IC50 (µM) ± SEM RPE1
Protocol: The safety of the synthesized agents against non-cancer/normal RPE1 (retinal pigment epithelium) cell line was assessed (Table 1, Supplementary Fig. S52). The SI (selectivity index) for the tested compounds against RPE1 cell line confirms the safety towards non-cancer cells. […] Compound 6d and 6h which are also of high anti-PaCa2 show remarkable SI values (SI = > 3.8, > 3.6, respectively).
The agents synthesized were also tested against RPE1 (normal human immortalized retinal pigment epithelial cell line) cell (in DMEM-F12 medium) to determine the toxicity/selectivity towards normal cells relative to the cancer cell lines utilized.
as §6

EGFR = biological target: T1, EGFR (Homo sapiens, UniProt P00533); format: cell-based; details: western blot, MCF7, compound at its MTT IC50; for EGFR RQ (relative quantification): control RQ 3.4461
T1 construct: Western blot technique was considered for EGFR and VEGFR-2 properties determination; endogenous in cells; host or cells: MCF7 (breast cancer cell line)
T1 sequence (P00533 25-1210): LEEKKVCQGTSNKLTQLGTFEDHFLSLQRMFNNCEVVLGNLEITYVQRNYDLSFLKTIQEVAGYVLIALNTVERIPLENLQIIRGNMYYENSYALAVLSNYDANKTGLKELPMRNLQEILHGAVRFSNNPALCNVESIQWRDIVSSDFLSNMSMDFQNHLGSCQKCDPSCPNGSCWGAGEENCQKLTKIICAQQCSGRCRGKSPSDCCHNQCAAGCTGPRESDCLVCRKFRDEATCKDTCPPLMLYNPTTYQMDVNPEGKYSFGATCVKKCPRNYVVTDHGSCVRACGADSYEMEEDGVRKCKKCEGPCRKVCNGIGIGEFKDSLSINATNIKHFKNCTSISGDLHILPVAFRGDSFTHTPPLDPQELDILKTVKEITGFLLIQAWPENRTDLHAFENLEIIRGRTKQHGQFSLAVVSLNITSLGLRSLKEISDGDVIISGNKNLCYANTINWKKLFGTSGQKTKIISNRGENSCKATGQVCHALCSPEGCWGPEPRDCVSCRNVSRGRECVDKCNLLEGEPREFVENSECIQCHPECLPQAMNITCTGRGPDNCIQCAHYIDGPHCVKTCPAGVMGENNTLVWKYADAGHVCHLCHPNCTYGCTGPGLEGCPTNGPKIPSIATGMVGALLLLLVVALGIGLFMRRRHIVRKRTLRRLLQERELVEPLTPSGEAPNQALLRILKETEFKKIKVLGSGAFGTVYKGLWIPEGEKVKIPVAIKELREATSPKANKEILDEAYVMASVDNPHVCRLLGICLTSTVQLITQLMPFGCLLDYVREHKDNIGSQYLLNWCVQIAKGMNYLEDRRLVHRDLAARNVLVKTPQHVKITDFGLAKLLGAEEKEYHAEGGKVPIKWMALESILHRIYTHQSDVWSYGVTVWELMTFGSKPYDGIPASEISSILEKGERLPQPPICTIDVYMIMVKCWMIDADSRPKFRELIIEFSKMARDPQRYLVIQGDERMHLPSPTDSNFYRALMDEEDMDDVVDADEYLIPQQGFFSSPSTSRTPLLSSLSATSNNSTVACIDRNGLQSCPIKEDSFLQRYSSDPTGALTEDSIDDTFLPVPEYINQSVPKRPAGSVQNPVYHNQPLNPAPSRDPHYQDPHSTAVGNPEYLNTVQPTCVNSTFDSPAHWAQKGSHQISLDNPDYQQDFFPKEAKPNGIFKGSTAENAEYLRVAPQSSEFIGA
Description: (§7) The western blot technique was applied utilizing the IC50 observed for each respective agent synthesized during MTT assay[85],[86]. Consideration of multi-targeted inhibitory properties investigation is based in the fact that cancer initiation and proliferation sometimes utilizes many receptors or signaling pathways.
(§8) Western blot technique was considered for EGFR and VEGFR-2 properties determination utilizing the IC50 observed of each respective agent synthesized during MTT assay against MCF7 (breast) cancer cell line. All the studies were conducted according to the manufacturer’s instruction.^10,^11

VEGFR-2 = biological target: T2, VEGFR-2 (Homo sapiens, UniProt P35968); format: cell-based; details: western blot, MCF7, compound at its MTT IC50; for VEGFR-2 RQ (relative quantification): control RQ 3.2634
T2 construct: Western blot technique was considered for EGFR and VEGFR-2 properties determination; endogenous in cells; host or cells: MCF7 (breast cancer cell line)
T2 sequence (P35968 20-1356): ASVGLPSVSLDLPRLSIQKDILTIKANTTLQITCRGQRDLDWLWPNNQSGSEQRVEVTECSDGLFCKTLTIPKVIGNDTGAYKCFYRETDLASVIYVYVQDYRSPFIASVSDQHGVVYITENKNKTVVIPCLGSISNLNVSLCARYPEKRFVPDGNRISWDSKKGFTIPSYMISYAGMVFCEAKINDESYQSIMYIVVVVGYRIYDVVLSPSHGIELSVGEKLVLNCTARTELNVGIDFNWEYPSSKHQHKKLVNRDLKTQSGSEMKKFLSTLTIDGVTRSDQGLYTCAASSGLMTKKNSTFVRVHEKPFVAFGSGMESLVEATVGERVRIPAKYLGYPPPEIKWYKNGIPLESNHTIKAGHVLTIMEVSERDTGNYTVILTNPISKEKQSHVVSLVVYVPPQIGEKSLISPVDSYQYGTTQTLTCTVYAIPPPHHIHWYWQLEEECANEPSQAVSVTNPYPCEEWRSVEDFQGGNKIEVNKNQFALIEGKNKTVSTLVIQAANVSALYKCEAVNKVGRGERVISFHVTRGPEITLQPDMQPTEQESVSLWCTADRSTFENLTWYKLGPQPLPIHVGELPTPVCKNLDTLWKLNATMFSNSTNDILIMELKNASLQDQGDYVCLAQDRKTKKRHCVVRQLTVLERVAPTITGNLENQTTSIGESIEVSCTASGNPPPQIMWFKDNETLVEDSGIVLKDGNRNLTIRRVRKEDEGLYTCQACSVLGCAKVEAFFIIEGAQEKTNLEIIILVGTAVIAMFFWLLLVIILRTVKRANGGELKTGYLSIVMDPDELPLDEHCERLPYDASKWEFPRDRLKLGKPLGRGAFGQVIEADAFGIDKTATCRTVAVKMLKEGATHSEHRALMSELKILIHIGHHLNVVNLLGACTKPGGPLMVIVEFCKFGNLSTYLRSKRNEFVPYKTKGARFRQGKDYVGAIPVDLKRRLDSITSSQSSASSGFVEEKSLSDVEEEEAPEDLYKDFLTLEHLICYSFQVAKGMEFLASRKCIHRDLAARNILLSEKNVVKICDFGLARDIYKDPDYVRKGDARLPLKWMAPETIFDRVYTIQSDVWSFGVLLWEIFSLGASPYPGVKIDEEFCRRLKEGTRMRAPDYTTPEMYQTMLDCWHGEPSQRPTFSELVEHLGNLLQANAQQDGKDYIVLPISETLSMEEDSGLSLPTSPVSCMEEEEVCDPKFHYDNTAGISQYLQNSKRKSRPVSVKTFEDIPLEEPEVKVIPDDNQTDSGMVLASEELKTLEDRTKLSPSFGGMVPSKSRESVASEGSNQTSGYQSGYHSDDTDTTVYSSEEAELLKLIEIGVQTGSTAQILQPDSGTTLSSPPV
Description: as §7, §8

[6] = test system: SARS-CoV-2 (hCoV-19/Egypt/NRC-03/2020); assay: Vero-E6 cell viral infection model, anti-SARS-CoV-2 IC50 (CPE, crystal violet); format: cell-based; details: for IC50: Severe acute respiratory syndrome coronavirus 2, Vero C1008; for SI = CC50/IC50: Vero-E6, SARS-CoV-2
[7] = MTT cytotoxicity assay (CC50); format: cell-based; details: African green monkey, VERO-E6 cells
Protocol: The cytotoxic activity of the compounds was tested in VERO-E6 cells by using the 3-(4,5-dimethylthiazol-2-yl)-2,5-diphenyltetrazolium bromide (MTT) method with minor modifications. Briefly, the cells were seeded in 96 well-plates […] at a density of 3 x 10^5 cell/ml and incubated for 24 h at 37 °C in 5% CO2. After 24 h, cells were treated with various concentrated of the tested compounds in triplicates. 24 h later, the supernatant was discarded and cell monolayers were washed with sterile 1x phosphate buffer saline (PBS) 3 times and MTT solution (20 µl of 5 mg/ml) was added to each well and incubated at 37 °C for 4 h followed by medium aspiration. In each well, the formed formazan crystals were dissolved with 200 µl of acidified isopropanol (0.04 M HCl in absolute isopropanol = 0.073 ml HCl in 50 ml isopropanol). Eventually, the absorbance was measured at λmax 570 nm using the Anthos Zenyth 200rt plate reader (Anthos Labtec Instruments, Heerhugowaard, Netherlands). The cytotoxicity of various concentrations compared to the untreated cells was determined using nonlinear regression analysis by plotting log inhibitor versus normalized response.^12^-14

AChE = AChE (Homo sapiens, UniProt P22303); assay: AChE inhibition (DTNB, acetylthiocholine); format: biochemical; details: for IC50: read-out: AChE (IC50, μM) ± SD
Chain of AChE (P22303 32-614): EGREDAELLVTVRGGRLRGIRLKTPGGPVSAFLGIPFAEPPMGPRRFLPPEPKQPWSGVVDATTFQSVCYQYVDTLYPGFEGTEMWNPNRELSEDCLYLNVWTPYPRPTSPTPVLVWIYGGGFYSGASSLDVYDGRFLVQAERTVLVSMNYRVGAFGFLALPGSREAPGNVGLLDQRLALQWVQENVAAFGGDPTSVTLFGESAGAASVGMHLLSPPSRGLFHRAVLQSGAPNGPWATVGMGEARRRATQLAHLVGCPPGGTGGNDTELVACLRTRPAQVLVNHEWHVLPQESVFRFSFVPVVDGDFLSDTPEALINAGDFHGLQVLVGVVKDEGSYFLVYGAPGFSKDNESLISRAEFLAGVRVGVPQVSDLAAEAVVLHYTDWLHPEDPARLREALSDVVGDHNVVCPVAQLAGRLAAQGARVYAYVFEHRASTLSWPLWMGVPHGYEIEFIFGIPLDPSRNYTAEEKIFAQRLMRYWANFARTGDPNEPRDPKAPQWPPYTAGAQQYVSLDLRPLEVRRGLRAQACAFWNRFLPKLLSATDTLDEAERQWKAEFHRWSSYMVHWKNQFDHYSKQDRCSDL
Protocol: All compounds were dissolved in MeOH.

BChE = BChE (Homo sapiens, UniProt P06276); assay: BChE inhibition (DTNB, butyrylthiocholine iodide)
Chain of BChE (P06276 29-602, species assumed): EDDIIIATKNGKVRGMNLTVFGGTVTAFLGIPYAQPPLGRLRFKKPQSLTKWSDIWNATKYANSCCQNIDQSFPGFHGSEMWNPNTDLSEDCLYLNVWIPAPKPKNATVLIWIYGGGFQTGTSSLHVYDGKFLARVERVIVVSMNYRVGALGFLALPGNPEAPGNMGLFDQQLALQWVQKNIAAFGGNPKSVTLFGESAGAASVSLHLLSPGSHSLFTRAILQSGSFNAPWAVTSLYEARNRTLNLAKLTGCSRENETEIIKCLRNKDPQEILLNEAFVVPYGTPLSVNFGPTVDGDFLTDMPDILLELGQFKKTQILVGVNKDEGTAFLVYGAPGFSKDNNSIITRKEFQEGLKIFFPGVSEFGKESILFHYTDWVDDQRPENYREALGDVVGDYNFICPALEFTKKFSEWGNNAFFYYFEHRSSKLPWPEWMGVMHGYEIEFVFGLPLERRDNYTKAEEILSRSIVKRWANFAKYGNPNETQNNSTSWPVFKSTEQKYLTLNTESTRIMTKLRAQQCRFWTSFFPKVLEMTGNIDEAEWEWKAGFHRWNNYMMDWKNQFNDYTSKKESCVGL

[8] = A-431, 72 h, read-out: IC50 (µM) ± SEM A431
[9] = A-431, read-out: Observed log(IC50, μM) (A431) (converted)
[10] = Vero-E6, 72 h, reduction of virus-induced CPE, read-out: IC50 (µM) SARS-CoV-2
[11] = log of observed IC50 in μM, read-out: Observed log(IC50, μM) (SARS-CoV-2) (converted)

| Compound | IC50 [1] [µM] | SI (selectivity index) MCF7 [1] | IC50 [2] [µM] | SI (selectivity index) HCT116 [2] | IC50 [3, 8] [µM] | IC50 [3, 9] [µM] | SI (selectivity index) A431 [3] | IC50 ([4]; PaCa-2, 72 h) [µM] | SI (selectivity index) PaCa-2 [4] | IC50 [5] [µM] | EGFR % Inhibition (EGFR) [%] | EGFR RQ (relative quantification) (EGFR) | VEGFR-2 % Inhibition (VEGFR-2) [%] | VEGFR-2 RQ (relative quantification) (VEGFR-2) | IC50 [6, 10] [µM] | IC50 [6, 11] [µM] | SI = CC50/IC50 [6] | CC50 at 24 h [7] [µM] | SI = IC50 (AChE)/IC50 (BChE) (AChE) | IC50 (AChE) [µM] | also measured |
| --- | --- | --- | --- | --- | --- | --- | --- | --- | --- | --- | --- | --- | --- | --- | --- | --- | --- | --- | --- | --- | --- |
| COc1ccc(/C=C2\CN(S(C)(=O)=O)CC3(C2=O)C(c2ccc(OC)c(OC)c2)CN(C)C32C(=O)Nc3ccccc32)cc1OC (stereo not drawn) [Compound 6n, (E)-5″-(3,4-Dimethoxybenzylidene)-4′-(3,4-dimethoxyphenyl)-1′-methyl-1″-(methylsulfonyl)dispiro[indoline-3,2′-pyrrolidine-3′,3″-piperidine]-2,4″-dione] | 40.2 ± 1.1 | > 1.2 | 15.4 ± 0.52 | > 3.2 | 34.9 ± 1.36 | 34.9 | > 1.4 | 32.8 ± 1.21 | > 1.5 | > 50 | 69.6 | 1.047 | 64.2 | 1.167 | 35.9 | 35.9 | 17.3 | 621 | 0.9 | 5.4 ± 0.94 | IC50 (BChE): 6.33 ± 0.85 µM |
| CN1CC(c2ccc(F)cc2)C2(CN(S(C)(=O)=O)C/C(=C\c3ccc(F)cc3)C2=O)C12C(=O)Nc1ccccc12 (stereo not drawn) [Compound 6e, (E)-5″-(4-Fluorobenzylidene)-4′-(4-fluorophenyl)-1′-methyl-1″-(methylsulfonyl)dispiro[indoline-3,2′-pyrrolidine-3′,3″-piperidine]-2,4″-dione] | 15.5 ± 0.76 | 3.2 | 9.89 ± 0.85 | 5.0 | 16.1 ± 0.99 | 16.1 | 3.1 | 39.9 ± 1.89 | 1.2 | 49 ± 1.11 | 66.7 | 1.147 | 64.5 | 1.158 | 27.9 | 27.9 | 7.3 | 203 | 0.7 | 15.1 ± 5.76 | IC50 (BChE): 22.2 ± 4.54 µM |
| CN1CC(c2ccc(F)cc2)C2(CN(S(C)(=O)=O)C/C(=C\c3ccc(F)cc3)C2=O)C12C(=O)Nc1ccc(Cl)cc12 (stereo not drawn) [Compound 6f, (E)-5-Chloro-5″-(4-fluorobenzylidene)-4′-(4-fluorophenyl)-1′-methyl-1″-(methylsulfonyl)dispiro[indoline-3,2′-pyrrolidine-3′,3″-piperidine]-2,4″-dione] | 5 ± 0.39 | 3.6 | 5.43 ± 0.46 | 3.3 | 4.76 ± 0.37 | 4.76 | 3.7 | 11.7 ± 0.94 | 1.5 | 17.8 ± 0.87 | 69.3 | 1.058 | 64.7 | 1.153 | 7.67 | 7.67 | 8.8 | 67.8 | 1.0 | 3.89 ± 1.66 | times the potency of chloroquine against SARS-CoV-2 ([6]; ratio of IC50 values): about 3.3 times; times the potency of hydroxychloroquine against SARS-CoV-2 ([6]; ratio of IC50 values): ~4.8 times; IC50 (BChE): 3.75 ± 0.71 µM |
| CCN(CC)CCNC(=O)c1c(C)[nH]c(/C=C2\C(=O)Nc3ccc(F)cc32)c1C [Sunitinib, reference compound] | – | – | – | – | – | – | – | – | – | – | – | – | – | – | – | – | – | – | – | – | IC50 ([4]; MTT, 72 h, PaCa-2): 16.9 ± 0.95 µM |
